# What was measured:
# [1] = system: IL-6 secretion by isolated Kupffer cells; assay: IL-1β-induced IL-6 production/secretion by isolated Kupffer cells (ELISA, qRT-PCR); type: cell-based, mouse; settings: for IL-1β-induced release of IL-6: EGFR-expressing Kupffer cells, 24 hours after IL-1β, inhibitor pre-incubation, FIG. 10C
# Experimental: (§1) ELISA for IL-6, IL17A, IL22, IL23 (eBioscience), amphiregulin (R&D Systems), CCL2, IL-1β and IL-1α (BD Biosciences-Pharmigen) were performed following the manufacturer's instructions. MTT assay (EZ4U, Biomedica) was performed to quantify the number of viable Kupffer cells in the wells. The cytokine value was normalized to the number of viable Kupffer cells.
# (§2) Hepatocytes were plated onto collagen pre-coated cell culture dishes and cultured in HepatoZyme-SFM (Gibco) supplemented with 2 mM glutamine and 1% penicillin-streptomycin (P/S). Hepatocytes were either treated with the indicated amounts of DEN for 24 hours or with 10 ng/ml TNFα (eBioscience) in the presence of cycloheximide (100 μg/ml, Sigma) for 12 hours to study the hepatoprotective role of EGFR. […] Since the number of Kupffer cells which can be recovered from one mouse is very low, it was technically impossible to perform Western Blot analysis for all indicated signaling molecules on one single batch of Kupffer cells. Usually Kupffer cells from 2 livers of the same genotype were pooled together to obtain around 20-30 μg of protein lysate.
# [2] = system: IL-6 release by cultured Kupffer cells; assay: EGF-induced IL-6 release by cultured Kupffer cells (ELISA); type: cell-based, mouse
# Experimental: as §1, with “Protocols for ELISA have been previously described (Natarajan, A. et al., 2007; Lichtenberger, B. M. et al., 2010; Sibilia, M. et al., 2000; Drobits, B. et al., 2012). ELISA” for “ELISA”
# Hepatocytes and Kupffer cells were isolated after liver perfusion according to previously published protocols (Smedsrod, B. et al., 1985) and either directly used for further analysis or cultured as follows. Hepatocytes were plated onto collagen pre-coated cell culture dishes and cultured in HepatoZyme-SFM (Gibco) supplemented with 2 mM glutamine and 1% penicillin-streptomycin (P/S). Hepatocytes were either treated with the indicated amounts of DEN for 24 hours or with 10 ng/ml TNFα (eBioscience) in the presence of cycloheximide (100 μg/ml, Sigma) for 12 hours to study the hepatoprotective role of EGFR. Kupffer cells were isolated and plated in RPMI 1640 with 10% FCS, 2 mM glutamine, 1% P/S for at least 24 hours followed by overnight starvation (in 0.5% FCS containing medium for cytokine induction; serum-free medium for signaling experiments). Kupffer cells were stimulated with IL-1β (10 ng/ml, eBioscience), EGF (10 ng/ml, Lonza), polylC (20 μg/ml, GE Healthcare), imiquimod (12 μg/ml, Invivogen) and LPS (10 ng/ml, Invivogen) for the time period indicated. […] Since the number of Kupffer cells which can be recovered from one mouse is very low, it was technically impossible to perform Western Blot analysis for all indicated signaling molecules on one single batch of Kupffer cells. Usually Kupffer cells from 2 livers of the same genotype were pooled together to obtain around 20-30 μg of protein lysate.
# [3] = system: AR release by cultured Kupffer cells; assay: AR (amphiregulin) release into supernatant of IL-1β stimulated Kupffer cells (ELISA); type: cell-based, mouse; settings: 24 hours after IL-1β stimulation in presence of inhibitor; FIG. 10B
# Experimental: as §1, with “Protocols for ELISA have been previously described (Natarajan, A. et al., 2007; Lichtenberger, B. M. et al., 2010; Sibilia, M. et al., 2000; Drobits, B. et al., 2012). ELISA” for “ELISA”
# Hepatocytes and Kupffer cells were isolated after liver perfusion according to previously published protocols (Smedsrod, B. et al., 1985) and either directly used for further analysis or cultured as follows. Hepatocytes were plated onto collagen pre-coated cell culture dishes and cultured in HepatoZyme-SFM (Gibco) supplemented with 2 mM glutamine and 1% penicillin-streptomycin (P/S). Hepatocytes were either treated with the indicated amounts of DEN for 24 hours or with 10 ng/ml TNFα (eBioscience) in the presence of cycloheximide (100 μg/ml, Sigma) for 12 hours to study the hepatoprotective role of EGFR. Kupffer cells were isolated and plated in RPMI 1640 with 10% FCS, 2 mM glutamine, 1% P/S for at least 24 hours followed by overnight starvation (in 0.5% FCS containing medium for cytokine induction; serum-free medium for signaling experiments). […]
# human HCC cells = settings: xenograft models with human HCC cells; W. Sieghart, unpublished results; cited from earlier work
# [4] = system: advanced stage HCC patients; settings: cited from earlier work
# [5] = system: patients with advanced non-small-cell lung cancer; settings: meta-analysis; cited from earlier work
# [6] = system: ulcerative colitis patients; settings: EGF enemas; cited from earlier work
# EGFR = EGFR phosphorylation in isolated Kupffer cells (Western blot); type: cell-based, mouse; settings: EGFR expressing Kupffer cells; IL-1β as stimulus; FIGS. 10E, 10F
# Experimental: as §2
# [7] = system: DSS colitis in Adam17^ex/ex mice; settings: exogenous supplementation; cited from earlier work
molecule,measurement,setting,value
"C[S+]([O-])c1ccc(-c2nc(-c3ccncc3)c(-c3ccc(F)cc3)[nH]2)cc1 (centres unmarked) [SB203580, reference compound]",IL-1β-induced release of IL-6,[1],inhibited
same,EGF-induced IL-6 production,"[2]; EGFR-positive liver macrophages, 24 hours after EGF, inhibitor pre-incubation, FIG. 10D",inhibited
"CC(C)C[C@H](CC(=O)NO)C(=O)N[C@@H](Cc1ccc2ccccc2c1)C(=O)N[C@@H](C)C(=O)NCCN [TAPI-1, reference compound]",IL-1β-induced release of IL-6,[1],blocked
same,AR release into the culture medium,[3],did not occur
C#Cc1cccc(Nc2ncnc3cc(OCCOC)c(OCCOC)cc23)c1 [erlotinib],reduction of HCC burden,human HCC cells,ineffective
same,synergistic effect of combination therapy with sorafenib,human HCC cells,did not show any synergistic effect
same,effects in phase 2 trials (disease stabilization at 6 months),"[4]; HCC, phase 2",moderate effects
same,improvement in survival through addition of erlotinib,"[4]; SEARCH trial, phase III, advanced stage HCC-patients",unable to show any improvement in survival
same,drug toxicity (diarrhea),[5],increased drug toxicity in the form of diarrhea
COc1cc2ncnc(Nc3ccc(F)c(Cl)c3)c2cc1OCCCN1CCOCC1 [gefitinib],clinical results in advanced stage HCC patients,[4]; advanced stage HCC,disappointing clinical results
same,drug toxicity (diarrhea),[5],increased drug toxicity in the form of diarrhea
"EGF: EGFR ligand epidermal growth factor (NSDSECPLSHDGYCLHDGVCMYIEALDKYACNCVVGYIGERCQYRDLKWWELR; UniProt P01133 971-1023, looked up)",restoration of IL-6 production in MyD88−/− Kupffer cells,"[2]; EGF as stimulus, FIG. 10D",fully restore
same,induction of IL-6 release,"[2]; EGFR expressing Kupffer cells, EGF as stimulus, FIGS. 10C, 10D",sufficient and equally as potent as IL-1β
same,disease remission,[6],induced disease remission
IL-1β: cytokine used to stimulate Kupffer cells,induction of IL-6 transcripts and IL-6 protein in the culture medium,"[1]; Kupffer cells expressing EGFR, IL-1β as stimulus, FIGS. 8E, 8F",induced
same,induction of EGFR phosphorylation,EGFR,able to induce
"TGFα: EGFR ligand transforming growth factor alpha, exogenous supplementation",rescue of colitis symptoms,[7],partial rescue
